# Laboratory results as given in patent US20030022243A1, “Protein aggregation assays and uses thereof” (priority 2001, published 2003).
# Columns and labels:
# Format in all cases: biochemical
# [1] = biological target: Zinc-deficient SOD-1 (Homo sapiens, UniProt P00441); experiment: MCO-induced aggregation of zinc-deficient SOD-1, light scattering; details: 37° C.
# Procedure: Apo-SOD-1 was incubated in the presence of a 1.1-fold molar excess of CuCl2 in 17 mM sodium acetate buffer, pH 3.8, for 24 hours at 40° C.
# Zinc-deficient SOD-1 was prepared, MCO-treated, and used to test various compounds and conditions for their effect on SOD-1 aggregation. Zinc-deficient SOD-1 aggregation mixtures were incubated with either 2 mM EDTA, 10 mM mannitol, or 10 mM DMPO as probes for the reactive oxygen species. Anaerobic conditions were achieved by degassing all solutions and oxidizing under vacuum (37° C.) in a vacuum hydrolysis tube (Pierce). Aggregates were detected using light scattering measurements made with a Photon Technology International QM-1 fluorescence spectrophotometer. Excitation and emission wavelengths were set to 350 nm (bandpass=4 nm).
# [2] = biological target: apo-SOD-1 (Homo sapiens, UniProt P00441); experiment: Native state stabilization assay (thermal aggregation of apo-SOD-1, RP-HPLC of soluble SOD-1); details: apo-SOD-1 incubated at 60° C. with exogenous metal
# Procedure: Apo-SOD-1 was prepared from holo-SOD-1 as reported (Crow et al., J. Neurochem., 69:1936, 1997). Holo-SOD-1 was first extensively dialyzed against 10 mM sodium acetate buffer containing 1 mM EDTA, pH 3.8 for 24-72 hours, then dialyzed against 10 mM sodium acetate buffer containing 100 mM NaCl, pH 3.8, and finally dialyzed against the desired buffer.
# For FIG. 17, apo-SOD-1 (100 μl) prepared as described above at a concentration of 30 μM in 10 mM sodium acetate buffer, pH 5.0, was incubated for 24 hours at either 4°, 37°, or 60° C. in sealed polypropylene tubes. […] RP-HPLC was carried out on a Zorbax SB300 C8 column (3.0×10 cm, 3.5 μm particle size) using a linear 4% B per min AB gradient at a flow rate of 1.0 ml/min, where A was 0.1% aqueous TFA and B was 0.1% TFA in acetonitrile. Detection was based on UV absorbance at 215 nm. In contrast, the sample incubated at 60° C. contained essentially no soluble SOD-1 in the supernatant as measured by the same method of analysis.
# An example of the use of the native state stabilization assay to test agents for inhibition of aggregation can be found in FIG. 18. Apo-SOD-1 samples were incubated under various conditions and analyzed by RP-HPLC to quantitate amounts of soluble SOD-1 remaining. Apo-SOD-1 incubated at 4° C. […] (positive aggregation control; chromatogram a). […]
# [3] = biological target: T1, SOD-1, from human erythrocytes (Homo sapiens, UniProt P00441); experiment: MCO (ascorbate/Cu)-induced SOD-1 aggregation, right angle light scattering
# T1 construct: SOD-1 was purchased from Sigma (purified from erythrocytes) and dissolved in the appropriate buffer; purchased Sigma-Aldrich Fine Chemicals (St. Louis, Mo., USA); host or cells: human erythrocytes
# Procedure: The effect of pH, copper ions, and ascorbic acid on the induction of SOD-1 aggregation was examined as follows. […] Right angle light scattering was measured at room temperature using a Photon Technology International QM-1 fluorescence spectrophotometer. Both the excitation and emission wavelengths were set to 350 nm and a 1 nm bandpass. A cuvette with an excitation and emission path lengths of 2 mm and 10 mm, respectively was used for the measurements.
# In addition, right angle light scattering was measured using a DynaPro99 Molecular Sizing Instrument with attached MicroSampler-MSXTC/12 (Protein Solutions, Inc., Charlottesville, Va.). A 12 μl-DynaPro quartz cuvette with a path length of 1.5 mm was used for all experiments. In the measurement, the SOD-1 sample solution was illuminated by a 60 mW, 825 nm solid-state laser, and the intensity of light scattered at a 90° angle was measured directly as the solution photon count rate in units of kcounts/sec. The averaged count rate was automatically calculated after all acquisitions of the measurements.
# [4] = 10 mM free radical scavenger in the oxidation reaction
# T1 sequence (P00441 2-154 limits assumed): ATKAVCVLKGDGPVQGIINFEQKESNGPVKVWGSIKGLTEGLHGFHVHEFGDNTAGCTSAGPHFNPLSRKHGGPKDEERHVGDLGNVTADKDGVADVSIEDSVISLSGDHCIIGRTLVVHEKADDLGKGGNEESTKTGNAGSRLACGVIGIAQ
# Sequence of Zinc-deficient SOD-1 (P00441 2-154 limits assumed): as above
# Sequence of apo-SOD-1 (P00441 2-154 limits assumed): as above
compound,measurement,setting,value
OC[C@@H](O)[C@@H](O)[C@H](O)[C@H](O)CO [mannitol],inhibition of MCO-induced aggregation (light scattering),[1]; [4],did not inhibit aggregation
[Cu] [copper],soluble SOD-1 remaining versus apo-SOD-1 without exogenous metal (RP-HPLC),[2],significantly more soluble SOD-1
O=C(O)CN(CCN(CC(=O)O)CC(=O)O)CC(=O)O [EDTA],inhibition of MCO-induced aggregation (light scattering),[1]; 2 mM EDTA in the oxidation reaction,inhibited aggregation
O=C1O[C@H]([C@@H](O)CO)C(O)=C1O [ascorbic acid],induction of SOD-1 aggregates detectable by right angle light scattering,"[3]; 2 mM ascorbic acid, 10 mM phosphate buffer pH 6, 37° C., 38 hours",resulted in the formation of aggregates
CC1(C)CCC=[N+]1[O-] [DMPO],inhibition of MCO-induced aggregation (light scattering),[1]; [4],did not inhibit aggregation
[Zn] [zinc],soluble SOD-1 remaining versus apo-SOD-1 without exogenous metal (RP-HPLC),[2],significantly more soluble SOD-1
[Cl][Cu][Cl] [CuCl2],induction of SOD-1 aggregates,"[3]; 25 μM CuCl2 in 10 mM sodium phosphate, no ascorbic acid, 38 hours",no aggregates of SOD-1 were induced
same,relative amount of aggregation induced by ascorbic acid,[3]; addition of 25 μM CuCl2 to 2 mM ascorbic acid,significantly enhanced
